This note sets out measurements from patent US7795261B2, “Substituted 1-piperidin-4-yl-4-pyrrolidin-3-yl-piperazine derivatives and their use as neurokinin antagonists” (Janssen Pharmaceutica NV, priority 2002, dated 2010).

Common to all, as to format: cell-based
One assay addresses NK1 (Homo sapiens, UniProt P25103). Put plainly: Signal transduction (ST), intracellular Ca++ (FLIPR), NK1 antagonistic activity. The note with it: read-out: pIC50 NK1 (converted). The essentials:
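Antagonist IC50 was fitted by non-linear regression of peak intracellular Ca++ signals measured on FLIPR after agonist challenge. Beforehand, Fluo3-loaded confluent cells received antagonists over a concentration range for 20 min at room temperature in Ca++ Krebs buffer, pH 7.4.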

The target of a further assay is T1, NK2 (Homo sapiens, UniProt P21452).
T1 sequence (P21452 1-398): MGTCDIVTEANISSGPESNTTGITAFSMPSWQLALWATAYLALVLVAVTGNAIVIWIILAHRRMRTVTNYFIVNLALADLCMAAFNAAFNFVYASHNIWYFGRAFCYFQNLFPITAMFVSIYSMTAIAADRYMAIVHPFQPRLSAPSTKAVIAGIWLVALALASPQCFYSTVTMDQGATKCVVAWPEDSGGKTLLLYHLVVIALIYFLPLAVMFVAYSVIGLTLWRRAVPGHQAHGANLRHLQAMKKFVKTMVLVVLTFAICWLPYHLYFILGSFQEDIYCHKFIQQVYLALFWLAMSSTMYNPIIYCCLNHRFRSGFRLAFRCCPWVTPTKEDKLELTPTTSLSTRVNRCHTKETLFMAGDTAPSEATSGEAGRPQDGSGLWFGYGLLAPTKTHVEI
Put plainly: Signal transduction (ST), intracellular Ca++ (FLIPR), NK2. The note with it: read-out: pIC50 NK2 (converted).

The target in a further assay is T2, NK3 (Homo sapiens, UniProt P29371).
T2 sequence (P29371 1-465): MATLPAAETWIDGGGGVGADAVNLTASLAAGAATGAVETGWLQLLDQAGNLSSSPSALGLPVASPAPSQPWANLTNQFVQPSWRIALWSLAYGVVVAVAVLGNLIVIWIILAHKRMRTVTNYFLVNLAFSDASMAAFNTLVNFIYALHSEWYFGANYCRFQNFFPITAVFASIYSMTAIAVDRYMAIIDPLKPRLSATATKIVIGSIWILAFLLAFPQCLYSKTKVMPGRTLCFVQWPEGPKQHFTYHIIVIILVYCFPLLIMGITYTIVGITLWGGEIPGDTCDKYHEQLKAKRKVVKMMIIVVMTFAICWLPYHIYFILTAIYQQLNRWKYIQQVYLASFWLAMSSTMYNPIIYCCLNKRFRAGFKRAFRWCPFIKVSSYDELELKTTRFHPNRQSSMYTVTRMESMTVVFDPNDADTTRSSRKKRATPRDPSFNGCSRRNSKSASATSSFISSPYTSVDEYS
Kind of assay: Signal transduction (ST), intracellular Ca++ (FLIPR), NK3. The note with it: read-out: pIC50 NK3 (converted).

Chain of NK1 (P25103 whole entry): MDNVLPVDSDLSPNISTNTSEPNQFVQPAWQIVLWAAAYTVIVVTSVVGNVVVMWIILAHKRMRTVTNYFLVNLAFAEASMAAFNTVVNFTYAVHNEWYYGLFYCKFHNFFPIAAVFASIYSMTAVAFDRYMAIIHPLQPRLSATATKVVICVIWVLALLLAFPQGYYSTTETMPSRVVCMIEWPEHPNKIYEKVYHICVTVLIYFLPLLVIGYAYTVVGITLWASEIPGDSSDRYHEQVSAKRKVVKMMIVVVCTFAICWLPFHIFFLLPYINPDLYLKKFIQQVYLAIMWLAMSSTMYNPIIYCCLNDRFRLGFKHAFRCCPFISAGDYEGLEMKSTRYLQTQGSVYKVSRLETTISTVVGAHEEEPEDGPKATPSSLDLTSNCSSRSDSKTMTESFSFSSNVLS

Regarding `O=C(C1CCCCC1)N1CCC(N2CCN(C3CCN(C(=O)c4cc(C(F)(F)F)cc(C(F)(F)F)c4)C(Cc4ccccc4)C3)CC2)C1` (single isomer, unassigned) [Compound 403], the IC50 at NK1 is 7.94 nM; on NK2, 2510 nM; at NK3, 2510 nM.

Regarding `O=C(c1ccoc1)N1CC[C@H](N2CCN([C@H]3CCN(C(=O)c4cc(C(F)(F)F)cc(C(F)(F)F)c4)[C@H](Cc4ccc(Cl)c(Cl)c4)C3)CC2)C1` [Compound 326], the values for the IC50 on NK1, at NK2 and on NK3 were 15.8 nM, 501 nM and 501 nM, respectively.

For the compound `O=C(C(NCc1ccccc1)c1ccccc1)N1CCC(N2CCN([C@H]3CCN(C(=O)c4cc(C(F)(F)F)cc(C(F)(F)F)c4)[C@H](Cc4ccccc4)C3)CC2)C1` (stereo partly drawn) [Compound 107], the IC50 was 100 nM at NK1, 3160 nM on NK2 and 631 nM at NK3.

As to `O=C(c1ccoc1)N1CCC(N2CCN(C3CCN(C(=O)c4cc(C(F)(F)F)cc(C(F)(F)F)c4)C(Cc4ccc(Cl)c(Cl)c4)C3)CC2)C1` (stereo not drawn) [Compound 173], the results for the IC50 on NK1, on NK2 and on NK3 were 20 nM, 794 nM and 251 nM, respectively.

For `O=C(Nc1ccccc1F)N1CCC(N2CCN([C@H]3CCN(C(=O)c4cc(C(F)(F)F)cc(C(F)(F)F)c4)[C@H](Cc4ccccc4)C3)CC2)C1` (stereo partly drawn) [Compound 284], the IC50 at NK1 is 12.6 nM; at NK2, 5010 nM; on NK3 it was 3980 nM.

Take `O=C(C1CC1)N1CC[C@@H](N2CCN([C@H]3CCN(C(=O)c4cc(C(F)(F)F)cc(C(F)(F)F)c4)[C@H](Cc4ccc(Cl)c(Cl)c4)C3)CC2)C1` [Compound 263]: the figures for the IC50 at NK1, on NK2 and at NK3 were 6.31 nM, 794 nM and 316 nM, respectively.

As for `O=C(c1cc(C(F)(F)F)cc(C(F)(F)F)c1)N1CC[C@H](N2CCN([C@@H]3CCN(S(=O)(=O)c4cccs4)C3)CC2)C[C@H]1Cc1ccc(Cl)c(Cl)c1` [Compound 268], the IC50 at NK1 is 20 nM; at NK2 it was 251 nM; on NK3, 1000 nM.

Take `CC(C)(C)OC(=O)N1CC[C@@H](N2CCN([C@H]3CCN(C(=O)c4cc(C(F)(F)F)cc(C(F)(F)F)c4)[C@H](Cc4ccc(Cl)c(Cl)c4)C3)CC2)C1` [Compound 261]: the IC50 is 31.6 nM on NK1, 1260 nM on NK2 and 501 nM on NK3.

Take `O=C(c1cc(C(F)(F)F)cc(C(F)(F)F)c1)N1CC[C@H](N2CCN(C3CCN(C(=O)C4(O)CC4)C3)CC2)C[C@H]1Cc1ccccc1` (stereo partly drawn) [Compound 276]: the IC50 was 10 nM on NK1, 3160 nM on NK2 and 5010 nM at NK3.

In the case of `CC(C)(C)OC(=O)N1CCC[C@H]1C(=O)N1CCC(N2CCN([C@H]3CCN(C(=O)c4cc(C(F)(F)F)cc(C(F)(F)F)c4)[C@H](Cc4ccccc4)C3)CC2)C1` (stereo partly drawn) [Compound 115], the values for the IC50 at NK1, at NK2 and at NK3 were 20 nM, 7940 nM and 316 nM, respectively.

On to `COc1ccccc1C(=O)N1CCC(N2CCN([C@H]3CCN(C(=O)c4cc(C(F)(F)F)cc(C(F)(F)F)c4)[C@H](Cc4ccccc4)C3)CC2)C1` (stereo partly drawn) [Compound 14], for which the figures for the IC50 on NK1, at NK2 and at NK3 were 7.94 nM, 5010 nM and 316 nM, respectively.

Regarding `O=C(c1ccco1)N1CCC(N2CCN([C@H]3CCN(C(=O)c4cc(C(F)(F)F)cc(C(F)(F)F)c4)[C@H](Cc4ccccc4)C3)CC2)C1` (stereo partly drawn) [Compound 35], the IC50 on NK1 is 25.1 nM; on NK2 it was 3980 nM; on NK3, 200 nM.

As for `CC(C)(C)OC(=O)NC(C)(C)C(=O)N1CCC(N2CCN(C3CCN(C(=O)c4cc(C(F)(F)F)cc(C(F)(F)F)c4)C(Cc4ccccc4)C3)CC2)C1` (stereo not drawn) [Compound 205], the IC50 on NK1 was 10 nM; at NK2 it was 3160 nM; at NK3, 251 nM.

As to `O=C(c1sccc1CO)N1CCC(N2CCN([C@H]3CCN(C(=O)c4cc(C(F)(F)F)cc(C(F)(F)F)c4)[C@H](Cc4ccccc4)C3)CC2)C1` (stereo partly drawn) [Compound 360], the figures for the IC50 on NK1, on NK2 and at NK3 were 10 nM, 3980 nM and 1000 nM, respectively.

Consider `O=C(c1cc(C(F)(F)F)cc(C(F)(F)F)c1)N1CC[C@H](N2CCN(C3CCN(S(=O)(=O)c4sccc4COCc4ccccc4)C3)CC2)C[C@H]1Cc1ccccc1` (stereo partly drawn) [Compound 292], for which the results for the IC50 on NK1, on NK2 and on NK3 were 100 nM, 794 nM and 794 nM, respectively.

Regarding `O=C(c1cc(C(F)(F)F)cc(C(F)(F)F)c1)N1CCC(N2CCN(C3CCN(S(=O)(=O)c4cc(CCO)cs4)C3)CC2)CC1Cc1ccccc1` (stereo not drawn) [Compound 342], the results for the IC50 at NK1, on NK2 and on NK3 were 5.01 nM, 126 nM and 398 nM, respectively.

On to `O=C(C1CCCCC1)N1CC[C@@H](N2CCN([C@H]3CCN(C(=O)c4cc(C(F)(F)F)cc(C(F)(F)F)c4)[C@H](Cc4ccc(Cl)c(Cl)c4)C3)CC2)C1` [Compound 299], for which the IC50 at NK1 was 7.94 nM; at NK2 it was 2510 nM; at NK3, 794 nM.

For the compound `O=C(C1CCCCC1)N1CCC(N2CCN(C3CCN(C(=O)c4cc(C(F)(F)F)cc(C(F)(F)F)c4)C(Cc4ccc(F)c(F)c4)C3)CC2)C1` (stereo not drawn) [Compound 358], the IC50 at NK1 was 12.6 nM; at NK2 it was 3160 nM; at NK3, 1580 nM.

Regarding `O=C(c1cc(C(F)(F)F)cc(C(F)(F)F)c1)N1CCC(N2CCN(C3CCN(Cc4ccccc4)C3)CC2)CC1Cc1cc(Cl)cc(Cl)c1` (stereo not drawn) [Compound 320], the IC50 was 251 nM on NK1, 3980 nM at NK2 and 2510 nM at NK3.

For `O=C(C1CC1)N1CCC(N2CCN(C3CCN(C(=O)c4cc(C(F)(F)F)cc(C(F)(F)F)c4)C(Cc4ccccc4)C3)CC2)C1` (single isomer, unassigned) [Compound 71], the results for the IC50 on NK1, on NK2 and on NK3 were 20 nM, 5010 nM and 794 nM, respectively.

On to `O=C(C1CCOC1)N1CCC(N2CCN(C3CCN(C(=O)c4cc(C(F)(F)F)cc(C(F)(F)F)c4)C(Cc4ccc(Cl)c(Cl)c4)C3)CC2)C1` (single isomer, unassigned) [Compound 330], for which the IC50 on NK1 is 3.16 nM; on NK2 it was 631 nM; at NK3, 398 nM.

Regarding `O=C(c1ccoc1)N1CC[C@@H](N2CCN([C@H]3CCN(C(=O)c4cc(C(F)(F)F)cc(C(F)(F)F)c4)[C@H](Cc4ccc(Cl)c(Cl)c4)C3)CC2)C1` [Compound 288], the values for the IC50 on NK1, at NK2 and at NK3 were 7.94 nM, 1580 nM and 794 nM, respectively.

Regarding `N#CN=C(N1CCCC1)N1CCC(N2CCN([C@H]3CCN(C(=O)c4cc(C(F)(F)F)cc(C(F)(F)F)c4)[C@H](Cc4ccccc4)C3)CC2)C1` (stereo partly drawn) [Compound 302], the IC50 was 7.94 nM on NK1, 2510 nM on NK2 and 1000 nM at NK3.

Take `O=C(c1ccsc1)N1CC[C@@H](N2CCN([C@H]3CCN(C(=O)c4cc(C(F)(F)F)cc(C(F)(F)F)c4)[C@H](Cc4ccc(Cl)c(Cl)c4)C3)CC2)C1` [Compound 287]: the IC50 at NK1 was 12.6 nM; at NK2, 1260 nM; at NK3, 251 nM.

Take `COc1ccc(S(=O)(=O)N2CCC(N3CCN([C@H]4CCN(C(=O)c5cc(C(F)(F)F)cc(C(F)(F)F)c5)[C@H](Cc5ccccc5)C4)CC3)C2)s1` (stereo partly drawn) [Compound 328]: the IC50 is 6.31 nM on NK1, 631 nM at NK2 and 6310 nM at NK3.
